In PubChem BioAssay (NCI):
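Tested at 5 concentrations; 48 h exposure; 96-well plates; endpoints linearly interpolated, else capped at highest concentration. At the GI50, growth is halved. Definition used: TGI = concentration required for complete inhibition of growth.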

Legend:
Assay in all cases: inhibition of tumour cell growth, NCI panel, 48 h
[1] = tested on: NCI-H226 lung
[2] = tested on: SF-539 CNS
[3] = tested on: ACHN renal
[4] = tested on: HCT-116 colon
[5] = tested on: SN12C renal
[6] = tested on: SK-MEL-28 melanoma
[7] = tested on: U251 CNS
[8] = tested on: HCT-15 colon
[9] = tested on: NCI/ADR-RES ovarian
[10] = tested on: MCF7 breast

| Compound | TGI [1] [µM] | TGI [2] [µM] | TGI [3] [µM] | TGI [4] [µM] | TGI [5] [µM] | TGI [6] [µM] | TGI [7] [µM] | TGI [8] [µM] | GI50 [1] [µM] | GI50 [2] [µM] | GI50 [3] [µM] | GI50 [4] [µM] | GI50 [5] [µM] | GI50 [7] [µM] | GI50 [8] [µM] | GI50 [9] [µM] | TGI [9] [µM] | GI50 [10] [µM] | TGI [10] [µM] | GI50 [6] [µM] |
| --- | --- | --- | --- | --- | --- | --- | --- | --- | --- | --- | --- | --- | --- | --- | --- | --- | --- | --- | --- | --- |
| C/C(=N\NC(N)=S)c1ccc2c(c1)OCO2 | > 100 | > 100 | > 100 | > 100 | > 100 | > 100 | > 100 | > 100 | – | – | – | – | – | – | – | – | – | – | – | – |
| Clc1ccc(C2=Nc3ccccc3SC(c3ccc(Cl)c(Cl)c3)C2)c(Cl)c1 (stereo not drawn) | 37.4 | 32.9 | 27.6 | 23.4 | 33.1 | 30.3 | 32 | 27.3 | – | – | – | – | – | – | – | – | – | – | – | – |
| O=c1cc/c(=N\Nc2ccccc2)c(=O)/c1=N/Nc1ccccc1 | > 50 | > 50 | > 50 | > 50 | > 50 | – | > 50 | > 50 | > 50 | > 50 | > 50 | > 50 | > 50 | > 50 | > 50 | > 50 | > 50 | – | – | – |
| Cc1ccccc1C(C#N)/C(=N/NC(=O)c1cc2ccccc2cc1O)C(=O)Nc1cccc(Cl)c1 (stereo not drawn) | 78.4 | 69.9 | > 100 | > 100 | > 100 | > 100 | > 100 | > 100 | – | – | – | – | – | – | – | – | – | – | – | – |
| CCOC(=O)/C(C#N)=C(O)/C(=C/c1ccccc1Cl)NC(=O)c1ccccc1 | > 100 | > 100 | > 100 | > 100 | > 100 | > 100 | > 100 | > 100 | – | – | – | – | – | – | – | – | – | – | – | – |
| COc1ccc(C2=NNC(c3ccc(-c4ccc(OC)cc4[N+](=O)[O-])o3)C2)cc1 (stereo not drawn) | – | 23.1 | > 100 | > 100 | – | > 100 | 50.3 | > 100 | – | 10.1 | 42.2 | 22.8 | – | 19.4 | 31 | 17.9 | 59.9 | 20 | > 100 | > 100 |
| O=C1CCC(c2nc3ccccc3o2)C(=O)N1 (stereo not drawn) | > 100 | > 100 | > 100 | > 100 | > 100 | > 100 | > 100 | > 100 | – | – | – | – | – | – | – | – | – | – | – | – |
| CN1C(c2ccccc2)CC(=Nc2ccccc2)CC1c1ccccc1 (stereo not drawn) | 25.6 | – | – | 16.4 | – | 23.2 | 19.6 | 29.9 | – | – | – | – | – | – | – | – | – | – | – | – |
| COc1cc2c(cc1OC)-c1c(cnn1C1OC(COC(C)=O)C(OC(C)=O)C(OC(C)=O)C1OC(C)=O)CC2 (stereo not drawn) | > 100 | > 100 | > 100 | > 100 | – | > 100 | > 100 | > 100 | – | – | – | – | – | – | – | – | – | – | – | – |
| O=C(Nc1ccc(C(F)(F)F)cc1[N+](=O)[O-])C(=O)C(C(=O)c1ccc2ccccc2c1)C1OC(=O)c2ccccc21 (stereo not drawn) | 3.29 | 5.03 | > 84.9 | 15.3 | 33.5 | 18 | 17.5 | 51.4 | – | – | – | – | – | – | – | – | – | – | – | – |
| N=C(c1ccccc1)N1CCCCC1 | > 100 | > 100 | – | > 100 | > 100 | > 100 | > 100 | – | – | – | – | – | – | – | – | – | – | – | – | – |
